Drawing on PubChem BioAssay (NCI), this text covers GI50 and TGI for 9 compounds.

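Test compounds were applied to cells in 96-well plates for 48 hours at 5 doses. At the GI50, growth is halved. The concentration for full growth arrest is given as TGI.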

Holding throughout (assay): NCI anticancer screen, dose series, 48 h
Test [1] concerns OVCAR-4 ovarian.
The test system of test [2] is HL-60(TB) leukemia.
Test [3] concerns SW-620 colon.
Test [4] relates to U251 CNS.
Test [5] deals with HOP-92 NSCLC.
Test [6] relates to OVCAR-8 ovarian.
For test [7], the system named is OVCAR-5 ovarian.
Test [8] concerns HCC-2998 colon.
For test [9], the system named is LXFL 529 NSCLC.
In test [10] the test system is KM20L2 colon.

As to `S=C(SSC(=S)N1CCCCC1)N1CCCCC1`, the GI50 in test [1] is 9.65 µM; in test [2], 12.4 µM; in [3], 13.4 µM; in test [4], 12.2 µM; in test [5] it was 30.7 µM; in test [6], 16.2 µM. The figures for the GI50 in test [7] and in test [8] were 14.6 µM and 28.9 µM, respectively. In addition, the TGI was 48.9 µM in [1]; 51.3 µM in [2]; 26.9 µM in test [3]; 45.2 µM in test [4]; over 100 µM in test [5]; 60.9 µM in test [6]. The TGI in test [7] was 27.9 µM; in test [8] it was over 100 µM.
`CC1=C2C=CC(=O)C[C@@]2(C)CCC1`: the TGI in test [1], in [2], in test [3], in test [9], in [4] and in [5] was over 100 µM in each case. Further, the TGI in [6], in test [7] and in [8] was over 100 µM throughout.
Take `COc1ccc2c(c1)C(=O)c1c-2n(CCCN(C)C)c(=O)c2cc([N+](=O)[O-])ccc12`: the GI50 in test [1] was 0.0515 µM; in [2] it was under 0.01 µM; in test [3] it was under 0.01 µM; in test [4] it was under 0.01 µM; in test [5] it was 0.0329 µM; in test [6] it was under 0.011 µM. For the same compound, the GI50 is 0.0235 µM in [7] and 0.0131 µM in test [8]. For the same compound, the TGI in test [1] was 9.37 µM; in test [2], 0.245 µM; in test [3], 1.34 µM; in [4], 1.07 µM; in test [5], 1.44 µM; in test [6], 3.75 µM. For the same compound, the results for the TGI in test [7] and in [8] were 0.394 µM and 0.255 µM, respectively.
For `C=C(C)C(=O)Nc1ccc(-c2c(-c3ccc(Oc4nccc(C)n4)c(F)c3)c3c(N)ncnc3n2C)cc1`, the GI50 in [1] is 2.84 µM; in test [2], 4.74 µM; in test [3] it was 8.7 µM; in test [4], 6.21 µM; in [5], 2.83 µM; in [6], 4.49 µM. The results for the GI50 in test [7] and in test [8] were 4.43 µM and 7.45 µM, respectively. For the same compound, the TGI was 33.8 µM in test [1]; over 100 µM in test [2]; 25.9 µM in test [3]; 25 µM in test [4]; 32.3 µM in test [5]; 19.2 µM in [6]. The TGI in [7] was 20.9 µM; in test [8], 21 µM.
For `CN(C)N=Nc1ccc(S(N)(=O)=O)cc1`, the TGI in test [1], in test [3], in test [10], in test [4], in [5] and in [6] was over 100 µM throughout. Also, the TGI in test [7] and in test [8] was over 100 µM each time.
On to `CCC(=O)Nc1nnc(Cc2ccc(OC)c(OC)c2)s1`, for which the GI50 in test [1] was over 100 µM; in test [2] it was over 100 µM; in test [3] it was over 100 µM; in test [4] it was over 100 µM; in [5] it was 78.7 µM; in test [6], over 100 µM. In addition, the GI50 in test [7] and in [8] was over 100 µM each time. In addition, the TGI in test [1], in test [2], in [3], in test [4], in test [5] and in [6] was over 100 µM throughout. For the same compound, the TGI in test [7] and in [8] was over 100 µM throughout.
In the case of `COc1cc(-c2ccc[nH]2)[nH]c1/C=C1\N=C(C)C(CC(=O)OCC(C)(C)C)=C1C`, the GI50 in [1] was 0.331 µM; in test [2], 0.239 µM; in test [3] it was 0.192 µM; in test [4] it was 0.141 µM; in test [5], 0.11 µM; in [6], 0.321 µM. The GI50 is 0.501 µM in test [7] and 0.368 µM in test [8]. The TGI in test [1] worked out at 2.06 µM; in [2], 0.801 µM; in test [3], 1.48 µM; in [4] it was 1.23 µM; in [5], 0.531 µM; in test [6] it was 1.44 µM. In addition, the TGI in test [7] is 2.31 µM; in test [8], 1.75 µM.
On to `COC(=O)CC1=C(C)/C(=C/c2[nH]c(-c3ccc[nH]3)cc2OC)N=C1C`, for which the GI50 in [1] is 0.147 µM; in test [2], 0.154 µM; in test [3] it was 0.148 µM; in test [4], 0.175 µM; in test [5] it was 0.0571 µM; in test [6], 0.236 µM. Moreover, the GI50 in test [7] was 0.195 µM; in test [8], 0.207 µM. The TGI amounted to 4.03 µM in test [1]; 0.882 µM in test [2]; 1.36 µM in [3]; 1.81 µM in [4]; 0.337 µM in [5]; 1.02 µM in [6]. Moreover, the TGI in test [7] was found to be 6.06 µM; in [8] it was 6.07 µM.
In the case of `Cc1ccc(-c2nc3sc(C)cn3c2/C=C2\C(=O)Nc3ccc(Cl)cc32)cc1`, the GI50 in [1] is 14.5 µM; in [2] it was 32.3 µM; in test [3], 19.1 µM; in test [4] it was 3.92 µM; in test [5], 7.66 µM; in test [6], 15.2 µM. Moreover, the GI50 in test [7] was 18.8 µM; in test [8] it was 15.1 µM. The TGI in test [1] is 29.9 µM; in test [2], over 100 µM; in test [3], 52.1 µM; in [4] it was 15.3 µM; in test [5], 25.1 µM; in test [6] it was 33.5 µM. The TGI in test [7] was determined as 38.5 µM; in [8], 31.1 µM.
